According to patent US20140288040A1, “SUBSTITUTED BENZYLAMINE COMPOUNDS, THEIR USE IN MEDICINE, AND IN PARTICULAR THE TREATMENT OF HEPATITIS C VIRUS (HCV) INFECTION” (ASTEX THERAPEUTICS LIMITED, priority 2011, published 2014):
Where a name gives a salt, the structure may show the parent alone. Read-outs that look alike come from different tables or passages of the source.

Legend:
[1] = target: T1, HCV NS3 protease (full length NS34a) (Hepatitis C virus genotype 1b, UniProt P26663); assay: HCV NS3 protease assay (FRET, full length NS34a); type: biochemical
T1 construct: The protease activity of the full length NS34a was measured using a FRET-based assay; made in house
Outline: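 Full-length NS34a incubated with compound and an NS4AB cleavage-site FRET peptide (QXL520 quencher, 5-FAMsp fluorophore) in 50 mM Tris pH8, 20 mM DTT, 1% CHAPS, 10% glycerol, 5% DMSO. Fluorescence followed for 30 minutes at room temperature; IC50 from initial rates of replicate progress curves.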

[2] = tested on: HCV subgenomic replicon in Huh-7 cells; assay: Replicon assay, EC50 luciferase readout; type: cell-based, hepatitis C virus (HCV); conditions: Hepatitis C virus, Huh-7, 72 h, single value, or second value of a pair x:y
Description: The activities of compounds of the invention against HCV in a cellular environment were analysed using a replicon assay as described below.
Thus, Huh-7 cells persistently infected with an HCV-RNA construct (Bartenschlager, R. Hepatitis C replicons: potential role for drug development. Nature Rev. Drug Discov. 1, 911-916 (2002)) comprising: 5′ and 3′ non-translated regions (NTR); the non-structural genes NS3 to NS5b; as well as the G418 drug resistance gene, neomycin, (for selection of cells carrying HCV replicon RNA) fused to the firefly Luciferase reporter gene (pFK13889luc-ubi-neoNS3-3′ET), were used to determine the cell based antiviral activity of compounds using luciferase activity as an indirect readout of HCV RNA load. In this assay […] huh-7 cells persistently infected with the HCV subgenomic replicon construct above were platedwell in a 96 well tissue culture plate. The cells were allowed to attach overnight in DMEM medium supplemented with 10% FBS 1% NEAA, and 250 μgml gentamicin. The following day the medium was replaced with 200 μlwell of fresh medium as described above lacking gentamicin. […] Plates were then incubated at 37° C. in an atmosphere of 5% CO2 and air for 72 h. […] The plate was then read at 535 nm (excitation) and 590 nm (emission) on a SpectraMax Gemini reader (Molecular Devices) to determine the number of viable cells by measuring the conversion of rezasurin (Alamar blue) to resorufin in response to mitochondrial activity. In order to determine the antiviral effect of these compounds EC50 values were determined by measuring the luciferase activity of the cells. Alamar blue solution was removed from the wells and replaced with 100 μlwell of medium along with 100 μlwell of Bright-Glo reagent and incubated at room temperature for 5 minutes before transferring 100 μlwell to a white bottom 96 well plate to read in a luminometer as described in the Bright-Glo Luciferase Assay System protocol (promega).

[3] = protease activity of full length NS34a, FRET peptide substrate, read-out: Activity IC50
[4] = Huh-7 replicon cells, 72 h, read-out: Activity EC50 (μM) (EC50 luciferase readout)
[5] = IC50 values of 10-150 μM against the protease activity of the full length NS34a, or at least 40% inhibition of protease activity at a concentration of 100 μM

T1 sequence (P26663 1658-1711): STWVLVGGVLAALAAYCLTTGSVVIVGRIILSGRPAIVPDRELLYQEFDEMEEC
T1 sequence (P26663 1027-1657): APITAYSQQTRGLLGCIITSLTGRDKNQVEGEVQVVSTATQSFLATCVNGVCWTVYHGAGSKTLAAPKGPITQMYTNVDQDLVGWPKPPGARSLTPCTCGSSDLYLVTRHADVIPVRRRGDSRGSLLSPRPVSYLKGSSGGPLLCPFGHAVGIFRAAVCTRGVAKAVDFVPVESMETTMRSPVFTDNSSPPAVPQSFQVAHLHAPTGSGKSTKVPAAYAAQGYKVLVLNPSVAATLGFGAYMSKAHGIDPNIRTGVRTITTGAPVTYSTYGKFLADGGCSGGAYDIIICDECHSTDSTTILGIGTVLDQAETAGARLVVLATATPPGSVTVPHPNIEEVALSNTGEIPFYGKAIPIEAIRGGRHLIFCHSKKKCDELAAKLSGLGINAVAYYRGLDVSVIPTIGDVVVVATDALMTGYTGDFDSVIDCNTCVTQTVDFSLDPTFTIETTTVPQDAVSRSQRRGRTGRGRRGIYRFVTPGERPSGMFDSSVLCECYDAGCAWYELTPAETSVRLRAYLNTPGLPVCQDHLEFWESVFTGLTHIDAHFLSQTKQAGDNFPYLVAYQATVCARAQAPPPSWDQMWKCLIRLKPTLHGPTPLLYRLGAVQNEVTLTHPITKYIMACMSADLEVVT

SMILES | IC50 [1, 3] | EC50 [2, 4] | IC50 ([1]; Activity IC50 (μM), protease activity of full length NS34a, FRET peptide substrate) | EC50 ([2]; read-out: Activity EC50 (μM) (EC50 luciferase readout), Huh-7 replicon cells, 72 h) | IC50 [1, 5]
CC[C@@H](N)c1ccc(Cl)c(Oc2ccc(N)c(C)c2)c1F [Example 112, 4-[3-((R)-1-Amino-propyl)-6-chloro-2-fluoro-phenoxy]-2-methyl-phenylamine.dihydrochloride] | 0.16 µM | > 10 µM | – | – | –
CC[C@@H](N[C@@H](C)CC(N)=O)c1ccc(Cl)c(Oc2ccc(C#N)nc2)c1F [Example 246] | 0.17 µM | > 10 µM | – | – | –
CC[C@@H](N)c1ccc(Cl)c(Oc2ccccc2)c1F [Example 78] | 1.2 µM | 9.6 µM | – | – | –
CC(CO)NC(c1ccc(F)c(Oc2ccccc2)c1F)C1CCNCC1 (single isomer, unassigned) [Example 75, 2-{[(2,4-Difluoro-3-phenoxy-phenyl)-piperidin-4-yl-methyl]-amino}-propan-1-ol.dihydrochloride] | 3.3 µM | 4.8 µM | – | – | –
C[C@@H](CO)N[C@H](CC1CCNCC1)c1ccc(F)c(Oc2ccccc2)c1F [Example 89] | 3.9 µM | 1.8 µM | – | – | –
C[C@H](CO)N[C@@H](CC1CCNCC1)c1ccc(F)c(Oc2ccccc2)c1F [Example 95B, (R)-2-[(S)-1-(2,4-Difluoro-3-phenoxy-phenyl)-2-piperidin-4-yl-ethylamino]-propan-1-ol.dihydrochloride] | 0.41 µM | 0.16 µM | – | – | –
CC[C@@H](N[C@H](C)CC(=O)NCCN)c1ccc(Cl)c(Oc2ccccc2)c1F [Example 223, (R)—N-(2-Amino-ethyl)-3-[(R)-1-(4-chloro-2-fluoro-3-phenoxy-phenyl)-propylamino]-butyramide.dihydrochloride] | – | > 30 µM | 0.081 µM | – | –
CCC(NCC1CCNCC1)c1ccc(F)c(Oc2ccccc2)c1F (stereo not shown) [Example 29] | 4.4 µM | 0.47 µM | – | – | –
CC[C@@H](N[C@@H](C)CC(=O)NOC)c1ccc(Cl)c(Oc2ccccc2)c1F [Example 155] | 1.7 µM | > 10 µM | – | – | –
CC[C@H](N[C@H](C)CC(N)=O)c1ccc(Cl)c(Oc2ccccc2)c1F (single isomer, unassigned) [Example 83] | 6.7 µM | 17 µM | – | – | –
N[C@@H](CC1CCNCC1)c1ccc(F)c(Oc2ccccc2)c1F [Example 93] | 0.79 µM | 1.8 µM | – | – | –
CCN(Cc1ccc(Cl)c(Oc2ccccc2)c1F)[C@H]1CC[C@H](N)CC1 [Example 273B, trans-N-(4-Chloro-2-fluoro-3-phenoxy-benzyl)-N-ethyl-cyclohexane-1,4-diamine.dihydrochloride] | 2.3 µM | 0.76 µM | – | – | –
CC[C@@H](N[C@@H](C)CC(=O)N[C@H](C)CO)c1ccc(Cl)c(Oc2ccccc2)c1F [Example 207] | 0.21 µM | – | – | > 10 µM | –
CC(N)c1ccc(F)c(Oc2ccccc2)c1F (stereo not shown) [Example 4] | 7 µM | 13 µM | – | – | –
CC[C@H](N[C@@H](C)CC(N)=O)c1ccc(Cl)c(Oc2ccccc2)c1F [Example 79, (S)-3-[(S)-1-(4-Chloro-2-fluoro-3-phenoxy-phenyl)-propylamino]-butyramide.hydrochloride] | 0.31 µM | > 10 µM | – | – | –
CCC(NCCO)c1ccc(F)c(Oc2ccccc2)c1F (stereo not shown) [Example 45, 2-[1-(2,4-Difluoro-3-phenoxy-phenyl)-propylamino]-ethanol. hydrochloride] | 1.7 µM | 9.1 µM | – | – | –
Cc1cc(Oc2c(F)ccc(CN[C@H]3CC[C@H](N)CC3)c2F)ccc1N [Example 287] | 0.44 µM | 6.5 µM | – | – | –
Cc1ccc(CN[C@H]2CC[C@H](N)CC2)c(F)c1Oc1ccccc1 [Example 272, trans-N-(2-Fluoro-4-methyl-3-phenoxy-benzyl)-cyclohexane-1,4-diamine.dihydrochloride] | 0.88 µM | 5.3 µM | – | – | –
CC[C@@H](N[C@@H](C)CC(N)=O)c1ccc(Cl)c(Oc2ccc(N)c(C(F)(F)F)c2)c1F [Example 260] | 0.17 µM | 0.043 µM | – | – | –

SMILES | IC50 [1, 3] | EC50 [2, 4] | IC50 ([1]; Activity IC50 (μM), protease activity of full length NS34a, FRET peptide substrate) | EC50 ([2]; read-out: Activity EC50 (μM) (EC50 luciferase readout), Huh-7 replicon cells, 72 h) | IC50 [1, 5]
CC[C@@H](N[C@@H](C)CC(N)=O)c1ccc(Cl)c(Oc2ccc([N+](=O)[O-])c(OC)c2)c1F [Example 253] | 0.41 µM | 0.13 µM | – | – | –
CC[C@H](Nc1cccc2c1CNCC2)c1ccc(F)c(Oc2ccccc2)c1F [Example 137] | 0.45 µM | 7.8 µM | – | – | –
CC[C@@H](N[C@@H](C)CC(=O)NC)c1ccc(Cl)c(Oc2ccccc2)c1F [Example 131A, (S)-3-[(R)-1-(4-Chloro-2-fluoro-3-phenoxy-phenyl)-propylamino]-N-methyl-butyramide.hydrochloride] | 1.2 µM | > 10 µM | – | – | –
OCCN[C@@H](CC1CCNCC1)c1ccc(F)c(Oc2ccccc2)c1F [Example 101] | 1.3 µM | 0.23 µM | – | – | –
N[C@H]1CC[C@H](NCc2ccc(Cl)c(Oc3ccccc3)c2F)CC1 [Example 271, trans-N-(4-Chloro-2-fluoro-3-phenoxy-benzyl)-cyclohexane-1,4-diamine. dihydrochloride] | 0.26 µM | 0.34 µM | – | – | –
CCC(NC1CCCNC1)c1ccc(F)c(Oc2ccccc2)c1F (stereo not shown) [Example 17] | – | 2.8 µM | – | – | 10 to 150 µM
CC[C@@H](N[C@@H](C)CC(N)=O)c1ccc(Cl)c(Oc2ccc(-c3cnco3)cc2)c1F [Example 219] | 0.22 µM | 0.32 µM | – | – | –
CC[C@@H](N[C@@H](C)CC(=O)NCCNCc1ccccc1)c1ccc(Cl)c(Oc2ccccc2)c1F [Example 265] | 1.1 µM | 0.47 µM | – | – | –
CCC(NCCC1CCCNC1)c1ccc(F)c(Oc2ccccc2)c1F (stereo not shown) [Example 27] | 1 µM | 0.26 µM | – | – | –
CC[C@H](N[C@@H](C)CC(N)=O)c1ccc(Cl)c(Oc2ccccc2)c1Cl [Example 324] | 1.8 µM | > 10 µM | – | – | –
CCCC(N)c1ccc(F)c(Oc2ccccc2)c1F (stereo not shown) [Example 12] | 1.2 µM | 10 µM | – | – | –
CC[C@@H](N[C@@H](C)CC(N)=O)c1ccc(Cl)c(Oc2ccc(N)nc2)c1F [Example 124] | 0.11 µM | 0.28 µM | – | – | –
N[C@H]1CC[C@H](NCc2ccc(F)c(Oc3ccccc3)c2F)CC1 [Example 282] | 0.73 µM | 0.37 µM | – | – | –
CC[C@@H](N[C@@H](C)CC(=O)NC1CCNCC1)c1ccc(Cl)c(Oc2ccccc2)c1F [Example 264] | 4.6 µM | 0.6 µM | – | – | –
NC(CC1CCNCC1)c1ccc(F)c(Oc2ccccc2)c1F (stereo not shown) [Example 72B, 1-(2,4-Difluoro-3-phenoxy-phenyl)-2-piperidin-4-yl-ethylamine. dihydrochloride] | 0.7 µM | 0.26 µM | – | – | –
CC[C@@H](N[C@@H](C)CC(=O)N[C@@H]1CCNC1)c1ccc(Cl)c(Oc2ccccc2)c1F [Example 263] | 0.39 µM | 1.6 µM | – | – | –
CC[C@@H](N[C@@H](C)CC(=O)N[C@H]1C[C@H](N)C1)c1ccc(Cl)c(Oc2ccccc2)c1F [Example 319] | 3.5 µM | 8.6 µM | – | – | –
CC[C@@H](N[C@@H](C)CC(N)=O)c1ccc(Cl)c(Oc2ccc([N+](=O)[O-])cc2)c1F [Example 201] | 0.2 µM | > 10 µM | – | – | –
N[C@@H](c1ccc(F)c(Oc2ccccc2)c1F)[C@H]1CCC(=O)NC1 [Example 74A] | – | > 30 µM | – | – | 10 to 150 µM
